Results taken from US20240409536A1, “COMPOUNDS AND METHODS FOR MODULATING SPLICING” (REMIX THERAPEUTICS INC., priority 2021, published 2024).
pIC50: −log10 of the molar value. Counter-ions that a name gives are not always drawn.

Columns and labels:
[1] = system: HTT mRNA; assay: Splicing RT-qPCR assay, HTT canonical (CJ) and alternative (AJ) junction mRNA; format: cell-based; conditions: Homo sapiens, A673 or K562 cells, 24 hours; for pIC50: decrease in canonical junction mRNA; for AC50: increase in alternative junction mRNA
Method in brief: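 A673 or K562 cells were treated 24 h at 37 °C with compounds in an 11-point 3-fold dilution series (top final 10 uM, DMSO ≤0.25%). Lysates were analysed by one-step RT-qPCR for canonical (CJ) and alternative-exon (AJ) junction isoforms, normalized to GAPDH, GUSB or PPIA.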

[2] = system: MYB mRNA; assay: Gene panel canonical junction qPCR assay, MYB CJ mRNA decrease; format: cell-based, human; conditions: Homo sapiens, canonical junction qPCR, read-out: MYB IC50 (decrease in CJ mRNA levels)
Method in brief: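 A673 or K562 cells were treated with compound, and lysates underwent cDNA synthesis and qPCR with a CY5 5′-nuclease probe or primer spanning the canonical exon junction. ΔCt versus GAPDH, GUSB or PPIA was normalized to DMSO (2^(−ΔΔCt)), converted to percentage response and fitted four-parameter logistic for IC50.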

## Cc1cn2cc(NC(=O)c3ccc(N4CCNC5(CC5)C4)c4ccnnc34)cc(F)c2n1 [Compound 105]
[1]
  pIC50: 5.00 to 6.00
  AC50: 1000 to 10000 nM
[2]
  pIC50: 6.00 to 7.00

## COc1cnc2c(C(=O)Nc3cc(F)c4nc(C)cn4c3)ccc(N3CCNCC3)c2n1 [Compound 225, N-{8-fluoro-2-methylimidazo[1,2-a]pyridin-6-yl}-2-methoxy-8-(piperazin-1-yl)quinoxaline-5-carboxamide]
[1]
  pIC50: < 5.00
  AC50: > 10000 nM
[2]
  pIC50: > 7.00

## CCNC1CCN(c2ccc(C(=O)Nc3cc(F)c4nc(C)sc4c3)c3nnccc23)CC1 [Compound 221, 5-[4-(ethylamino)piperidin-1-yl]-N-(4-fluoro-2-methyl-1,3-benzothiazol-6-yl)cinnoline-8-carboxamide]
[1]
  pIC50: 5.00 to 6.00
  AC50: 1000 to 10000 nM
[2]
  pIC50: 5.00 to 6.00

## Cc1ccc2c(N3C[C@@H](C)N[C@@H](C)C3)ccc(C(=O)Nc3cc(F)c4nc(C)cn4c3)c2n1 [Compound 214, 5-[(3R,5S)-3,5-dimethylpiperazin-1-yl]-N-{8-fluoro-2-methylimidazo[1,2-a]pyridin-6-yl}-2-methylquinoline-8-carboxamide]
[1]
  pIC50: 6.00 to 7.00
  AC50: 1000 to 10000 nM
[2]
  pIC50: > 7.00

## Cc1cn2cc(NC(=O)c3ccc(N4CCN(C)[C@@H](C)C4)c4ccnnc34)cc(F)c2n1 [Compound 150]
[1]
  pIC50: 5.00 to 6.00
  AC50: 1000 to 10000 nM
[2]
  pIC50: 6.00 to 7.00

## Cc1cn2cc(NC(=O)c3ccc(N4CCNC(C)(C)C4)c4nccnc34)cc(F)c2n1 [Compound 220, 8-(3,3-dimethylpiperazin-1-yl)-N-{8-fluoro-2-methylimidazo[1,2-a]pyridin-6-yl}quinoxaline-5-carboxamide]
[1]
  pIC50: 5.00 to 6.00
  AC50: 1000 to 10000 nM
[2]
  pIC50: > 7.00

## Cc1cn2cc(NC(=O)c3ccc(N(C)[C@@H]4C[C@H]5CC[C@@H](C4)N5)c4ccnnc34)cc(F)c2n1 [Compound 156]
[1]
  pIC50: < 5.00
  AC50: > 10000 nM
[2]
  pIC50: 5.00 to 6.00

## Cc1cn2cc(NC(=O)c3ccc(N4CCN(C)CC4)c4ccnnc34)cc(F)c2n1 [Compound 127]
[1]
  pIC50: 5.00 to 6.00
  AC50: 1000 to 10000 nM
[2]
  pIC50: 6.00 to 7.00

## Cc1c(O)c(NC(=O)c2ccc(N3CCNCC3)c3ccnnc23)cc2cn(C)nc12 [Compound 181, N-(6-hydroxy-2,7-dimethylindazol-5-yl)-5-(piperazin-1-yl)cinnoline-8-carboxamide]
[1]
  pIC50: < 5.00
  AC50: > 10000 nM
[2]
  pIC50: 6.00 to 7.00

## Cc1cn2cc(NC(=O)c3ccc(N4C[C@@H](C)NC5(CC5)C4)c4nccnc34)cc(F)c2n1 [Compound 376]
[1]
  pIC50: < 5.00
  AC50: > 10000 nM
[2]
  pIC50: 6.00 to 7.00

## Cc1cn2cc(NC(=O)c3ccc(N4CCC(N(C)C)C4)c4ccnnc34)cc(F)c2n1 (stereo not drawn) [Compound 134]
[1]
  pIC50: 5.00 to 6.00
  AC50: 1000 to 10000 nM
[2]
  pIC50: 6.00 to 7.00

## Cc1cn2cc(NC(=O)c3ccc(N4CCNCC4)c4ccnnc34)cc(C)c2n1 [Compound 125]
[1]
  pIC50: 5.00 to 6.00
  AC50: 1000 to 10000 nM
[2]
  pIC50: 6.00 to 7.00

## Cc1cn2cc(NC(=O)c3ccc(N4CCNCC4)c4ccnnc34)[nH]c(=O)c2n1 [Compound 177, N-{2-methyl-8-oxo-7H-imidazo[1,2-a]pyrazin-6-yl}-5-(piperazin-1-yl)cinnoline-8-carboxamide trifluoroacetic acid salt]
[1]
  pIC50: 6.00 to 7.00
  AC50: 100 to 1000 nM
[2]
  pIC50: 6.00 to 7.00

## Cc1cn2cc(NC(=O)c3ccc(N4CCC5(CCN5)CC4)c4nccnc34)cc(F)c2n1 [Compound 189, 8-{1,7-diazaspiro[3.5]nonan-7-yl}-N-{8-fluoro-2-methylimidazo[1,2-a]pyridin-6-yl}quinoxaline-5-carboxamide]
[1]
  pIC50: 6.00 to 7.00
  AC50: 100 to 1000 nM
[2]
  pIC50: > 7.00

## COCCOc1cc2c(N3CCNCC3)ccc(C(=O)Nc3cc(F)c4nc(C)cn4c3)c2nn1 [Compound 199, N-{8-fluoro-2-methylimidazo[1,2-a]pyridin-6-yl}-3-(2-methoxyethoxy)-5-(piperazin-1-yl)cinnoline-8-carboxamide]
[1]
  pIC50: < 5.00
  AC50: > 10000 nM
[2]
  pIC50: 6.00 to 7.00

## Cc1cn2cc(NC(=O)c3ccc(N4CCNC(C)C4)c4ccnnc34)cc(F)c2n1 (stereo not drawn) [Compound 128]
[1]
  pIC50: 6.00 to 7.00
  AC50: 100 to 1000 nM
[2]
  pIC50: > 7.00

## Cc1cn2cc(NC(=O)c3ccc(N4CCC(NC(C)(C)C)CC4)c4ccnnc34)cc(F)c2n1 [Compound 138]
[1]
  pIC50: 5.00 to 6.00
  AC50: 1000 to 10000 nM
[2]
  pIC50: 6.00 to 7.00

## Cc1cnc2c(N3CCNCC3)ccc(C(=O)Nc3cc(F)c4nc(C)cn4c3)c2n1 [Compound 197, N-{8-fluoro-2-methylimidazo[1,2-a]pyridin-6-yl}-3-methyl-8-(piperazin-1-yl)quinoxaline-5-carboxamide; trifluoroacetic acid]
[1]
  pIC50: 5.00 to 6.00
  AC50: 1000 to 10000 nM
[2]
  pIC50: 6.00 to 7.00

## CNC1CCN(c2ccc(C(=O)Nc3cc(F)c4nc(C)cn4c3)c3nc(C)ccc23)C1 (stereo not drawn) [Compound 196, N-{8-fluoro-2-methylimidazo[1,2-a]pyridin-6-yl}-2-methyl-5-[3-(methylamino)pyrrolidin-1-yl]quinoline-8-carboxamide 2,2,2-trifluoroacetate]
[1]
  pIC50: 5.00 to 6.00
  AC50: 1000 to 10000 nM
[2]
  pIC50: 6.00 to 7.00

## Cc1cn2nc(NC(=O)c3ccc(N4CCNCC4)c4ccnnc34)cc2c(C)n1 [Compound 123]
[1]
  pIC50: 5.00 to 6.00
  AC50: 1000 to 10000 nM
[2]
  pIC50: 5.00 to 6.00
